Experimental data from PMC6934184, “Selective DNA-PKcs inhibition extends the therapeutic index of localized radiotherapy and chemotherapy” (The Journal of Clinical Investigation, 2019).

Molecular target: T1, MAP2K6 (MKK6) (Homo sapiens, UniProt P52564)
T1 construct: purchased Thermo Fisher Scientific (Life Technologies) SelectScreen
Experiment: SelectScreen Z'LYTE
Assay type: biochemical
Settings: ATP 100 µM
How it was run: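 NU5455 was profiled across the SelectScreen Broad panel of kinase activity and binding assays. Z'LYTE reactions such as CSF1R ran at apparent Km ATP, while the Adapta CAMK1 assay used ATP listed as 10. Values are given as percent.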

T1 sequence (P52564 whole entry): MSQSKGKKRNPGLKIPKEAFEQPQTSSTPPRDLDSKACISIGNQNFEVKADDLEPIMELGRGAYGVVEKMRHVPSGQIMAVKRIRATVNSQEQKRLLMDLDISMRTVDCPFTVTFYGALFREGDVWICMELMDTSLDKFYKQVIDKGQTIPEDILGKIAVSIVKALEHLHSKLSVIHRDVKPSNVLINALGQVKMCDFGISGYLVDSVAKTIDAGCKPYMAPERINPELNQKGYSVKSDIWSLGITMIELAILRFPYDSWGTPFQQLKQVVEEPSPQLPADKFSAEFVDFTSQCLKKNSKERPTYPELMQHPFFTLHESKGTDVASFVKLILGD

`CN(C(=O)CN1CCOCC1)c1ccc2sc3c(-c4cccc5c(=O)cc(N6CC7CCC(C6)O7)oc45)cccc3c2c1` [NU5455] was tested. Which inhibition at 1 µM did it give?
Its inhibition at 1 µM is 1.8%.
